Data taken from patent publication US20150265682A1, “THERAPEUTIC METHODS AND COMPOSITIONS FOR TREATING DIABETES” (Orient Europharma Co., Ltd., priority 2014, published 2015).

Tests used:
[1] = system: C2C12 skeletal muscle cells; experiment: Glycogen content assay in C2C12 myotubes; type: cell-based; conditions: 30 minutes
Method: The C2C12 skeletal muscle cells were cultured in Dulbecco's modified Eagle's medium (DMEM; Gibco/Invitrogen, Carlsbad, Calif.), and the human hepatocellular carcinoma cell line, Hep3B, was cultured in Roswell Park Memorial Institute medium 1640 (RPMI 1640 medium; Gibco/Invitrogen, Carlsbad, Calif.). Cells were cultured at 37° C. in the humidified incubator supplied with 5% CO2. Culture mediums were supplemented with 4.5 mgmL^−1 glucose, penicillin 100 IUmL^−1, streptomycin 100 μgmL^−1 and 10% fetal bovine serum (Gibco/Invitrogen, Carlsbad, Calif.). Only C2C12 cells were then switched to 2% horse serum for 3 days after reaching the 70% confluence. Myotubes formation was achieved after 4 days of incubation, and the cells were used for subsequent experiments. Culture mediums were replaced by serum free DMEM or RPMI for 24 h before experiments (see e.g., procedure described in Sultan et al., 2006).
C2C12 and Hep3B cells were treated with 1 nM insulin, 100 μM metformin, and the assigned concentration of borapetoside A for 30 minutes. To develop the insulin resistance state of cells, C2C12 cells were incubated with IL-6 at 20 ngmL^−1 for 1 hour. Later, the cells were treated with 1 nM insulin, 100 μM metformin, and the assigned concentration of borapetoside A for 30 minutes. After the assigned treatment, cells were washed twice with phosphate buffered saline (PBS). Glycogen content was measured as previously described, with some modifications (see e.g., Savage et al., 2008). The protein concentrations of the cell lysates were determined by using Pierce BCA Protein Assay Kit (Thermo-Scientific, Rockford, Ill.). The glycogen content of each sample was normalized by total protein.

[2] = system: non-diabetic and T2DM mice; experiment: Oral glucose tolerance test (OGTT) with borapetoside C; type: in vivo, ICR mice; conditions: 5 mg/kg
Method: This study was conducted following the University ethical guidelines on animal experimentation and complied with the Guide for the Care and Use of Laboratory Animals published by the US National Institutes of Health (NIH publication no. 85-23, revised 1996). The animal facility was well controlled for temperature (22±1° C.), and humidity (60±5%) and a 12 h/12 h light-dark cycle was maintained with access to food and water ad libitum. Four-week-old male ICR mice were acquired from BioLasco Taiwan Co., Ltd. and maintained at College of Medicine Experimental Animal Center, National Taiwan University. The study was conducted on 8-10 week-old male ICR mice.
T1DM mice were induced by a known method. In brief, an intraperitoneal injection of streptozotocin (STZ; Sigma Chemical Co.; St. Louis, Mo.) at 150 mg/kg was performed in mice that were fasted for 48 h. The induction of T1DM was assessed and confirmed when the mice had plasma glucose levels ≧350 mg/dL, accompanied with polyuria, hyperphagia and decreased body weight. The control mice group received an injection of vehicle and then carried out for 4 weeks. T2DM mice were induced by maintaining on a fat-rich chow diet and fructose-sweetened water for 4 weeks from the age of 4-5 weeks according to previous methods. The induction T2DM mice were assessed by measuring fasting plasma glucose levels and confirmed when plasma glucose level was ≧150 mg/dL after a 4-week induction.
Blood samples were collected from the orbital vascular plexus of mice under anesthesia with sodium pentobarbital (80 mg/kg, intraperitoneal, Sigma Chemical Co., St. Louis, Mo., USA). Blood samples were then centrifuged at 13000 rpm for 5 min, and the plasma was kept on ice prior to the assay. The plasma glucose concentration was measured using commercial kits following manufacturer's instructions (BioSystems S. A., Barcelona, Spain).
To perform OGTT, mice were fasted overnight, divided into 2 groups and then administered a vehicle control and 5 mg/kg borapetoside C. This was followed by administration of a glucose solution at 2 g/kg via tube feeding. Blood samples were withdrawn from the orbital vascular plexus at intervals of 30, 60, 120, and 150 min after glucose administration. For the ITT, mice were fasted for 3 h. Human insulin (Insulin Actrapid) HM; Novo Nordisk, Denmark) was injected intraperitoneally after an intraperitoneal administration of 0.1 mg/kg borapetoside C for 30 min. Blood samples were collected from the orbital vascular plexus at the timed intervals mentioned above.

SMILES | fold increase of glycogen ([1]; 10^−6 mol/L) [fold] | fold increase of glycogen ([1]; 10^−7 mol/L) [fold] | fold increase of glycogen ([1]; 10^−8 mol/L) [fold] | basal plasma glucose concentration in OGTT ([2]; T2DM mice) [mg/dL] | decrease of area under the curve (AUC) in OGTT vs vehicle-treated group ([2]; T2DM mice) [%] | plasma glucose levels at 60, 120 and 150 min vs vehicle-treated mice ([2]; T2DM mice) | plasma glucose concentration sixty min after oral glucose administration ([2]; T2DM mice, glucose 2 g/kg) [mg/dL] | basal plasma glucose concentration in OGTT ([2]; non-diabetic mice) [mg/dL] | plasma glucose levels at 120 min and 150 min vs vehicle-treated mice ([2]; non-diabetic mice) | plasma glucose concentration at 60 min after oral administration of glucose ([2]; non-diabetic mice, glucose 2 g/kg) [mg/dL] | decrease of area under the curve (AUC) in OGTT vs vehicle-treated group ([2]; normal mice) [%]
C[C@@]12C[C@@H](c3ccoc3)OC(=O)[C@@H]1C[C@@H]1OC(=O)[C@@]3(O)[C@@H](O[C@@H]4O[C@H](CO)[C@@H](O)[C@H](O)[C@H]4O)CC[C@@H]2[C@@]13C [Borapetoside A, borapetoside A] | 1.49±0.15 | 1.28±0.04 | 1.53±0.10 |  |  |  |  |  |  |  | 
COC(=O)C1=CCC[C@H]2[C@]3(C)C[C@@H](c4ccoc4)OC(=O)[C@@H]3C[C@@H](O[C@@H]3O[C@H](CO)[C@@H](O)[C@H](O)[C@H]3O)[C@@]12C [Borapetoside C, borapetoside C] |  |  |  | 206.8 ± 19.0 | 16 | significantly lower | 338.2 ± 24.5 | 115 ± 3.5 | significantly lower | 312.8 ± 21.3 | 22
